From US20240245677A1, “SELECTED COMPOUNDS FOR TARGETED DEGRADATION OF BRD9” (C4 THERAPEUTICS, INC., priority 2021, published 2024) come the findings set out here.

One data set addresses T1, CRBN-DDB1 (Homo sapiens, UniProt Q96SW2).
T1 construct: His; purchased Wuxi Biortus Biosciences Co., Ltd
As to the kind of experiment: Fluorescence polarization competition binding assay, CRBN-DDB1. Conditions: FP competition. How it is done: Fluorescence polarization (FP) competition experiments were used to determine the binding affinity of Compound 1 to purified CRBN-DDB1 protein.
Human Histidine (His) CRBN and non-tag DDB1 (CRBN-DDB1 (5.64 mg/mL in 25 mM HEPES, 300 mM NaCl, 1 mM TCEP, pH 7.5)) was purchased from Wuxi Biortus Biosciences Co., Ltd. (Jiangsu, China) and stored at −80° C. until use. Potent CRBN-DDB1 ligand was chemically labeled with the commercially available fluorophore Alexa Fluor™ 647 (Invitrogen, Waltham, MA, USA) following manufacturer's instructions. Fluorescently labelled CRBN-DDB1 binding compound at 0.3 mM in DMSO was stored at −20° C.
The determination of the binding constant (Kd) of Compound 1 to CRBN-DDB1 was carried out using an established, sensitive and quantitative in vitro fluorescence polarization (FP) binding assay (Nasir & Jolley, 1999). […]
A 20 μL mixture containing 150 nM CRBN-DDB1 and 5 nM probe dye in 50 mM HEPES, pH 7.4, 200 mM NaCl, 1 mM TCEP and 0.05% Pluronic Acid F-127 was added to wells containing compound and incubated at room temperature for 1.5 hours. […] Matching control plates excluding CRBN-DDB1 were used to correct for background fluorescence (Shapiro et al., 2009). Plates were read on an EnVision® multimode plate reader (Catalog No. 2104-0010, Perkin Elmer Inc., Dumfries, VA, USA) with Cy5 polarization filters and mirror. […]
A general note: Fluorescence polarisation rises when a labelled molecule tumbles more slowly, as on binding a larger partner.

Data set [1] in a line: Crystallization from hot saturated solutions by slow cooling. The format is physicochemical. Conditions: for Comments / XRPD: hot saturated solution. How it is done:
Samples with no precipitates were put in −20° C. freezer for crystallization. Precipitates were collected by centrifuged. Solid parts (wet cakes) were investigated by XRPD.

Each structure is given as a SMILES string. Several values for one entry are separate records, joined by “and”; a condition that tells them apart may be missing. Identical values can stand only once. Like-named read-outs stand apart in the source and are kept apart here.

With `COc1cc(-c2cn(C)c(=O)c(C)c2C)cc(OC)c1CN1CC[C@H](N2CCN(c3ccc(N[C@H]4CCC(=O)NC4=O)cc3F)CC2)C(F)(F)C1` [Compound 1, (S)-3-((4-(4-((S)-1-(2,6-dimethoxy-4-(1,4,5-trimethyl-6-oxo-1,6-dihydropyridin-3-yl)benzyl)-3,3-difluoropiperidin-4-yl)piperazin-1-yl)-3-fluorophenyl)amino)-piperidine-2,6-dione], the Kd (in general, a measure of binding affinity in units of concentration) on CRBN-DDB1 (each occasion in duplicate, read-out: Kd, individual test occasion) is 2100 nM and 1600 nM and 2300 nM; at CRBN-DDB1 (n=3, read-out: Kd (geometric mean), binding to CRBN-DDB1), 2000 nM. In addition, in data set [1] (2-MeTHF, add Pattern G as seeds, slurry for 5 days), the “Comments: form after seeding” value is “Pattern G”. Besides, the Comments result in data set [1] (2-MeTHF), in data set [1] (Ethyl acetate) and in data set [1] (Methanol) was “Clear solution” in each case. Besides, the XRPD entry is “Pattern B” in data set [1] (Acetone) and “Pattern F” in data set [1] (Ethanol).
